Measurements published in patent US8093274B2, “Inhibitors of protein prenyltransferases” (The Regents of the University of California, priority 2006, dated 2012).
Where two headings read alike, the source gives them in different places.

What was measured:
Format in all cases: biochemical
[1] = molecular target: GGTase I (substrate RhoA) (Homo sapiens, UniProt P49354+P53609); assay: GGTase I filter-binding assay with RhoA as substrate; conditions: for activity at 50 µM: read-out: % activity of GGTase I for protein RhoA in the presence of the compound
Experimental: (§1) The pilot library was screened for inhibitors of protein geranylgeranyltransferase type I. Protein prenyltransferase assays were carried out by using filter binding. Two different substrates, RhoA and K-Ras4B, were used for the assay. RhoA ends with the CaaL motif and is an exclusive substrate for GGTase I, while K-Ras4B ends with the CaaX motif and is modified by both GGTase I and FTase.
(§2) The % activity of GGTase I was determined as follows: a working solution that contained each compound in DMSO at the concentration of 1 mM was prepared. The working solution was added to GGTase I reaction mixture so that the final concentration of the compound is 50 μM. GGTase I activity was assayed by incubating [^3H]GGPP with K-Ras4B or RhoA protein in the presence of GGTase I and examining radioactivity incorporated into the substrate protein by spotting onto a filter paper. After washing with TCA, ethanol and acetone, the radioactivity retained on the filter was determined by the use of a scintillation counter. GGTase I activity in the presence of DMSO was taken as a 100% value and the activity in the presence of the compound was shown as percent activity compared with the 100% value. […] For 6-aryl-4-mercapto-N-sulfonyl-piperidine-3-carboxylic acid 11 the 4-mercapto substituent appeared critical to endowing GGTase inhibitory activity. […] 4-Chlorobenzylthio substituent was the next best; 12 compounds out of 21 containing the 4-chlorobenzylthio moiety were active. 4-Benzylthio substituent was also good; 7 piperidines out of 21 bearing 4-benzylthio group were active. […] 19 imines (C15>C12=C41>C40>C01=C11>C05=C10=C30=C35=C37=C38>C02, C03, C04, C06, C39=C43) out of 21 appeared in the GGTIs. […] This corresponds to 47 6-aryl-4-mercapto-N-sulfonyl-piperidine-3-carboxylic acids out of 357 compounds.
(§3) A collection of 138 heterocycles was screened for their ability to inhibit the activity of human GGTase-I to geranylgeranylate K-Ras4B or RhoA. Purified GGTase-1 was incubated with its substrate protein K-Ras4B or RhoA, [^3H]GGPP, and the 138 compounds. After 30 min, the degree of incorporation of tritiated geranylgeranyl groups was measured using a scintillation counter.
The GGTase-I assay was carried out using RhoA as a substrate protein, GGTase-I (JENA Bioscience) and [3H]geranylgeranyl pyrophosphate. Incubation was for 30 min at 37 C. GGTase-H (or RabGGTase) assay was carried out using YPT1 as a substrate protein, GGTase-H (Calbiochem, San Diego, Calif.) plus REP1 (Calbiochem) and [3H]geranylgeranyl pyrophosphate. Incubation was for 30 min at 37 C. FIGS. 20D-20F show the three dimensional structure of GGTase I (D), FTsse (E) and GGTase II (F) which can be obtained from X-ray diffraction studies of protein crystals.

[2] = molecular target: GGTase I (substrate K-Ras4B) (Homo sapiens, UniProt P49354+P53609); assay: GGTase I filter-binding assay with K-Ras4B as substrate; conditions: read-out: % activity of GGTase I for protein K-Ras4B in the presence of the compound
Experimental: as §1, §2, §3

GGTase I = GGTase I (Homo sapiens, UniProt P49354+P53609); assay: GGTase I assay, substrate not specified or K-Ras4B and RhoA compared; conditions: for GGTI activity in screen of 138 heterocycles: K-Ras4B or RhoA substrate, 30 min
Experimental: as §1, §2, §3

[3] = 50 μM compound, DMSO = 100%, smaller numbers indicate better inhibition, second number of pair
[4] = 50 μM compound, DMSO = 100%, smaller numbers indicate better inhibition, first number of pair

`Cc1ccc(S(=O)(=O)N2[C@@H](c3cccc(F)c3)C(C(=O)O)=C[C@H]2C(C)(C)C)cc1` was tested, and the activity at 50 µM [1] was 9.1% and the activity at 50 µM [2] was 23.7%.

`Cc1ccccc1S(=O)(=O)N1[C@@H](c2ccc(Cl)cc2)C(C(=O)O)=C[C@H]1CC1CCCC1` showed an activity at 50 µM [1] of 9.1% and an activity at 50 µM [2] of 23.7%.

`Cc1ccc(S(=O)(=O)N2C(c3ccc(Cl)c(Cl)c3)CC=C(C(=O)O)[C@@H]2c2cccc(Br)c2)cc1` (some centres unmarked) showed an activity at 50 µM [1] of 3.2% and an activity at 50 µM [2] of 8.6%.

In the case of `Cc1ccc(S(=O)(=O)N2C(c3ccc(Cl)c(Cl)c3)CC=C(C(=O)O)[C@@H]2c2cccc(Cl)c2)cc1` (some centres unmarked), the activity at 50 µM [1] is reported as 4.5% and the activity at 50 µM [2] is reported as 10.7%.

Work on `Cc1ccccc1S(=O)(=O)N1C(c2ccc(Cl)cc2)CC=C(C(=O)O)[C@@H]1c1ccccc1` (some centres unmarked) yielded an activity at 50 µM [1] of 5.8% and an activity at 50 µM [2] of 13.4%.

For `Cc1ccc(S(=O)(=O)N2C(c3ccc(Cl)c(Cl)c3)CC=C(C(=O)O)[C@@H]2c2ccc(Br)cc2)cc1` (some centres unmarked), the activity at 50 µM [1] was 11.3% and the activity at 50 µM [2] was 18.7%.

Compound `C=CCS[C@H]1[C@@H](C(=O)O)[C@H](c2cccc(F)c2)N(S(=O)(=O)c2ccc(C)cc2)[C@@H]1CC1CCCC1` has an activity at 50 µM [1, 3] of 9.7% and an activity at 50 µM [2, 4] of 30.4%.

Work on `CCC[C@@H]1[C@@H](SCCC(=O)OC(C)(C)C)[C@@H](C(=O)O)[C@H](c2cccc(F)c2)N1S(=O)(=O)c1ccc(C)cc1` yielded an activity at 50 µM [1, 3] of 7.8% and an activity at 50 µM [2, 4] of 20.2%.

Compound `CCCC[C@@H]1[C@@H](Sc2ccc(OC)cc2)[C@@H](C(=O)O)[C@H](c2cccc(F)c2)N1S(=O)(=O)c1ccc(C)cc1` has an activity at 50 µM [1, 3] of 3.5% and an activity at 50 µM [2, 4] of 27.4%.

With `Cc1ccc(S(=O)(=O)N2[C@H](CC3CCCC3)[C@@H](SCCC(=O)OC(C)(C)C)[C@@H](C(=O)O)[C@@H]2c2cccc(F)c2)cc1` the activity at 50 µM [1, 3] was 8.2% and the activity at 50 µM [2, 4] was 31.9%.

For `C=CCS[C@H]1[C@@H](C(=O)O)[C@H](c2ccc(Cl)cc2)N(S(=O)(=O)c2ccccc2C)[C@@H]1CCC`, the activity at 50 µM [1, 3] was 8.9% and the activity at 50 µM [2, 4] was 28.4%.

Compound `Cc1ccccc1S(=O)(=O)N1[C@H](CC2CCCC2)[C@@H](SCCC(=O)OC(C)(C)C)[C@@H](C(=O)O)[C@@H]1c1ccc(Cl)cc1` has an activity at 50 µM [1, 3] of 7.8% and an activity at 50 µM [2, 4] of 10%.

Work on `C=CCS[C@H]1[C@@H](C(=O)O)[C@H](c2ccc(Cl)cc2)N(S(=O)(=O)c2ccccc2C)[C@@H]1CCCC` yielded an activity at 50 µM [1, 3] of 8.4% and an activity at 50 µM [2, 4] of 23.1%.

Compound `C=CCS[C@H]1[C@@H](C(=O)O)[C@H](c2ccc(Cl)cc2)N(S(=O)(=O)c2ccccc2C)[C@@H]1CCCCCC` has an activity at 50 µM [1, 3] of 6% and an activity at 50 µM [2, 4] of 24.9%.

`C=CCS[C@H]1[C@@H](C(=O)O)[C@H](c2ccc(Cl)cc2)N(S(=O)(=O)c2ccccc2C)[C@@H]1CC1CCCC1` gave an activity at 50 µM [1, 3] of 4.9% and an activity at 50 µM [2, 4] of 22.4%.

`CCC[C@@H]1[C@@H](SCCC(=O)OC(C)(C)C)[C@@H](C(=O)O)[C@H](c2ccc(Cl)cc2)N1S(=O)(=O)c1ccc(Cl)cc1` gave an activity at 50 µM [1, 3] of 9.2% and an activity at 50 µM [2, 4] of 21.7%.

`COc1ccc(S[C@H]2[C@@H](C(=O)O)[C@H](c3ccc(Cl)cc3)N(S(=O)(=O)c3ccc(Cl)cc3)[C@@H]2C(C)C)cc1` showed an activity at 50 µM [1, 3] of 8% and an activity at 50 µM [2, 4] of 48.7%.

Work on `CC(C)(C)OC(=O)CCS[C@H]1[C@@H](C(=O)O)[C@H](c2ccc(Cl)cc2)N(S(=O)(=O)c2ccc(Cl)cc2)[C@@H]1CC1CCCC1` yielded an activity at 50 µM [1, 3] of 9.8% and an activity at 50 µM [2, 4] of 22.5%.

In the case of `CC(C)(C)OC(=O)CCS[C@H]1[C@@H](C(=O)O)[C@H](c2ccc(Cl)cc2)N(S(=O)(=O)c2ccccc2)[C@@H]1CC1CCCC1`, the activity at 50 µM [1, 3] is reported as 9.7% and the activity at 50 µM [2, 4] is reported as 30.4%.

With `C=CCS[C@H]1[C@@H](C(=O)O)[C@H](c2ccc(C#N)cc2)N(S(=O)(=O)c2ccc(C)cc2)[C@@H]1C(C)C` the activity at 50 µM [1, 3] was 9.3% and the activity at 50 µM [2, 4] was 23.1%.

Work on `C=CCS[C@H]1[C@@H](C(=O)O)[C@H](c2ccc(C#N)cc2)N(S(=O)(=O)c2ccc(C)cc2)[C@@H]1CCCCCC` yielded an activity at 50 µM [1, 3] of 6% and an activity at 50 µM [2, 4] of 21.5%.

`C=CCS[C@H]1[C@@H](C(=O)O)[C@H](c2ccc(Br)cc2)N(S(=O)(=O)c2ccc(C)cc2)[C@@H]1CCC` was tested, and the activity at 50 µM [1, 3] was 7.5% and the activity at 50 µM [2, 4] was 9.8%.

`C=CCS[C@H]1[C@@H](C(=O)O)[C@H](c2ccc(Br)cc2)N(S(=O)(=O)c2ccc(C)cc2)[C@@H]1CCCCCC` gave an activity at 50 µM [1, 3] of 5.5% and an activity at 50 µM [2, 4] of 15.5%.

Work on `Cc1ccc(S(=O)(=O)N2[C@H](CC3CCCC3)[C@@H](SCCC(=O)OC(C)(C)C)[C@@H](C(=O)O)[C@@H]2c2cccc(Cl)c2)cc1` yielded an activity at 50 µM [1, 3] of 5.6% and an activity at 50 µM [2, 4] of 20.6%.

With `CC[C@@H]1[C@@H](Sc2ccc(OC)cc2)[C@@H](C(=O)O)[C@H](c2cccc(Cl)c2)N1S(=O)(=O)c1ccc(C)cc1` the activity at 50 µM [1, 3] was 6.5% and the activity at 50 µM [2, 4] was 25.5%.

In the case of `C=CCS[C@H]1[C@@H](C(=O)O)[C@H](c2ccc(OC)c(OC)c2)N(S(=O)(=O)c2ccc(C)cc2)[C@@H]1CCCCCC`, the activity at 50 µM [1, 3] is reported as 8.1% and the activity at 50 µM [2, 4] is reported as 22.3%.

`C=CCS[C@H]1[C@@H](C(=O)O)[C@H](c2ccc(Cl)cc2)N(S(=O)(=O)c2ccc(C)cc2)[C@@H]1CC1CCCC1` gave an activity at 50 µM [1, 3] of 7.7% and an activity at 50 µM [2, 4] of 25.2%.

For `C=CCS[C@H]1[C@@H](C(=O)O)[C@H](c2ccc(C(C)C)cc2)N(S(=O)(=O)c2ccc(C)cc2)[C@@H]1CC1CCCC1`, the activity at 50 µM [1, 3] was 6.1% and the activity at 50 µM [2, 4] was 31.7%.

With `CCC[C@@H]1[C@@H](Sc2ccc(C)cc2)[C@@H](C(=O)O)[C@H](c2cccc(F)c2)N1S(=O)(=O)c1ccc(C)cc1` the activity at 50 µM [1, 3] was 4.1% and the activity at 50 µM [2, 4] was 14.7%.

`CCCCCS[C@H]1[C@@H](C(=O)O)[C@H](c2cccc(F)c2)N(S(=O)(=O)c2ccc(C)cc2)[C@@H]1CCCC` showed an activity at 50 µM [1, 3] of 7.1% and an activity at 50 µM [2, 4] of 23.5%.

With `CCCC[C@@H]1[C@@H](Sc2ccc(C)cc2)[C@@H](C(=O)O)[C@H](c2cccc(F)c2)N1S(=O)(=O)c1ccc(C)cc1` the activity at 50 µM [1, 3] was 7.1% and the activity at 50 µM [2, 4] was 31.5%.

`CCCCCC[C@@H]1[C@@H](Sc2ccc(C)cc2)[C@@H](C(=O)O)[C@H](c2ccc(Cl)c(Cl)c2)N1S(=O)(=O)c1ccc(C)cc1` gave an activity at 50 µM [1, 3] of 9.2% and an activity at 50 µM [2, 4] of 21.3%.

Compound `CCCCCC[C@@H]1[C@@H](Sc2ccc(C)cc2)[C@@H](C(=O)O)[C@H](c2ccc(Cl)cc2)N1S(=O)(=O)c1ccccc1` has an activity at 50 µM [1, 3] of 7.5% and an activity at 50 µM [2, 4] of 15%.

In the case of `CC(C)CCS[C@H]1[C@@H](C(=O)O)[C@H](c2ccc(Cl)cc2)N(S(=O)(=O)c2ccccc2)[C@@H]1C(C)C`, the activity at 50 µM [1, 3] is reported as 5.9% and the activity at 50 µM [2, 4] is reported as 28.1%.

`CCCCCC[C@@H]1[C@@H](SC2CCCC2)[C@@H](C(=O)O)[C@H](c2ccc(C#N)cc2)N1S(=O)(=O)c1ccc(C)cc1` showed an activity at 50 µM [1, 3] of 7.4% and an activity at 50 µM [2, 4] of 20.1%.

`COC(=O)C(CC(C)C)NC(=O)c1ccc(NCc2cnc[nH]2)cc1-c1ccccc1C` (centres unmarked) [GGTI-2166, reference compound] was tested, and the “substrate preference of GGTase I inhibition (RhoA vs K-Ras4B), known GGTIs” value (GGTase I; FIG. 17) was “inhibit RhoA-driven GGTase I activity slightly better than K-Ras4B-driven GGTase I activity” and the IC50 ([1]; FIG. 15, read-out: IC50 for the inhibition of GGTase I using RhoA as a substrate) was 0.5 µM.

With `CC[C@@H]1C=C(C(=O)O)[C@H](c2ccc(F)cc2)N1S(=O)(=O)c1ccc(C)cc1` [compound 1] the “GGTI activity in screen of 138 heterocycles” value (GGTase I) was “identified as GGTIs”.

`Cc1ccc(S(=O)(=O)N2[C@@H](c3ccccc3)C(C(=O)O)=CC[C@H]2c2ccc(F)cc2)cc1` [compound 2] was tested, and the “GGTI activity in screen of 138 heterocycles” value (GGTase I) was “identified as GGTIs”.
